Test results reported in patent US8048927B2 (Besins Healthcare Luxembourg, priority 2004, dated 2011).

Columns and labels:
[1] = percutaneous [^3H]-4-hydroxy tamoxifen delivery in breast cancer patients (Example 1)
Experimental: The patients received [^3H]-labeled drug applied directly on the affected breasts at specified intervals ranging from 12 hours to 7 days before surgery to excise diseased tissue. Breast tissue from three regions: the tumor, tissue immediately surrounding the tumor, and normal tissue, was excised and immediately frozen in liquid nitrogen. Additionally, plasma and urine samples were obtained at scheduled intervals and frozen until analysis.

benign breast disease = conditions: cited from earlier work
[2] = Group 2 (0.5 mg/day gel): seventh day of treatment; Group 1 (oral tamoxifen): fifth day; cited from earlier work
estrone sulphatase = target: T1, estrone sulphatase (Homo sapiens, UniProt P08842); conditions: mammary cancer cell lines; cited from earlier work
T1 construct: estrone sulphatase activity in mammary cancer cell lines; endogenous in cells
T1 sequence (P08842 22-583): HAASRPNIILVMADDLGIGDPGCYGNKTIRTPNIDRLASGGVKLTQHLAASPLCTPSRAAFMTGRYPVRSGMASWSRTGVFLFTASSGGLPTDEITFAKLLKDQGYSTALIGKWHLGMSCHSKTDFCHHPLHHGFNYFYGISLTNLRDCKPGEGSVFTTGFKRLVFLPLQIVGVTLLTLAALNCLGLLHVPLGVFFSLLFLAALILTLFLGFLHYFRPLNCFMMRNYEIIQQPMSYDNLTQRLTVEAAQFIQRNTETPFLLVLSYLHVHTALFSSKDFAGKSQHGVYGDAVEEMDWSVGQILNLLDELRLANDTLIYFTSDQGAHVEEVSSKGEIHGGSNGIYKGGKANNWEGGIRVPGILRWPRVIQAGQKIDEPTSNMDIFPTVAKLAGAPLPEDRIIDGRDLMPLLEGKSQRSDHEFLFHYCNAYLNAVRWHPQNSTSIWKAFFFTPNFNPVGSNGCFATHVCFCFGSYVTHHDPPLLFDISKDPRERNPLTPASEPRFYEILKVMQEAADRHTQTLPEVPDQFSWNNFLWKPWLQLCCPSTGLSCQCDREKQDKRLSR

[3] = Group 1: PO tamoxifen 20 mg/day (10 mg b.i.d.), 3-4 weeks; cited from earlier work
rat liver = conditions: cited from earlier work
[4] = test system: p53(−) normal human mammary epithelial cells; conditions: cited from earlier work

| Structure (SMILES) | time of plateau of radioactivity in blood ([1]; percutaneous application) | retention in the breast ([1]; percutaneous application to the breast) | decrease of risk, adenosis (benign breast disease; in vivo) | decrease of risk, cyst (benign breast disease; in vivo) | decrease of risk, duct ectasia (benign breast disease; in vivo) | decrease of risk, fibrocystic disease (benign breast disease; in vivo) | decrease of risk, hyperplasia (benign breast disease; in vivo) | decrease of risk, metaplasia (benign breast disease; in vivo) | reduction of the risk of developing benign breast disease, overall (benign breast disease; in vivo) | reduction of the need for breast biopsies (benign breast disease; women under 50) | side effects reported by one person of the group [2] | inhibitory effect on estrone sulphatase activity (estrone sulphatase) | Normal Tissue concentration of 4-hydroxy tamoxifen, Mean ± SD [3] | Plasma concentration of 4-hydroxy tamoxifen, Day Pre-Surgery, Mean ± SD [3] | Plasma concentration of 4-hydroxy tamoxifen, Day of Surgery, Mean ± SD [3] | Tumor concentration of 4-hydroxy tamoxifen, Mean ± SD [3] | rat liver carcinogenicity (rat liver) | initiation of apoptosis [4] |
| --- | --- | --- | --- | --- | --- | --- | --- | --- | --- | --- | --- | --- | --- | --- | --- | --- | --- | --- |
| CC/C(=C(\c1ccccc1)c1ccc(OCCN(C)C)cc1)c1ccccc1 [[^3H]-tamoxifen] | 2 days | – | – | – | – | – | – | – | – | – | – | – | – | – | – | – | – | – |
| CC/C(=C(\c1ccccc1)c1ccc(OCCN(C)C)cc1)c1ccccc1 [tamoxifen] | – | shorter and far weaker | 41% | 34% | 28% | 33% | 40% | 49% | 28% | 41% | hot flashes and mild vaginitis | little or no effect | 10215 ± 2151 pg/g | 2.326 ± 0.585 ng/mL | 2.317 ± 1.098 ng/mL | 12453 ± 3751 pg/g | potent rat liver carcinogen | initiates apoptosis |
